We go through two molecules from publication PMC11941939, “Tackling Prostate Cancer with Theranostic E5B9-Bombesin Target Modules (TMs): From Imaging to Treatment with UniCAR T-Cells” (International Journal of Molecular Sciences, 2025).

In this experiment the target is T1, GRPR (Homo sapiens, UniProt P30550).
T1 construct: Both cell lines express GRPR; endogenous in cells; host or cells: PC-3 cells (dimeric TM also tested in LNCaP cells)
The experiment can be described thus: Competitive binding assay against 125I-Tyr4-bombesin in PC3 cells. The procedure:
Then, ^125I-Tyr^4-BBN (0.05 nM final concentration) was added to each well, and the plates were incubated for 2 h at 4 °C. The cells were then rinsed twice with ice-cold phosphate-buffered saline (PBS) and harvested. The cells were placed on a Packard II gamma counter (PerkinElmer, Boston, MA, USA) to determine the cell-associated radioactivity. After decay correction, data were plotted using GraphPad Prism 9 Software (San Diego, CA, USA) using the sigmoidal dose–response equation, with counts per minute (cpm) of radioactivity bound versus the log of the concentration of NOTA-E5B9-BBN2 monomeric or dimeric TM for the determination of IC50 values. NOTA-E5B9-BBN2 dimeric TM was also tested in LNCaP cells. Gastrin-releasing peptide (GRP) served as the control.

Read-outs that look alike come from different tables or passages of the source.

Usually IC50 stands for the midpoint of a concentration-inhibition curve.

T1 sequence (P30550 whole entry): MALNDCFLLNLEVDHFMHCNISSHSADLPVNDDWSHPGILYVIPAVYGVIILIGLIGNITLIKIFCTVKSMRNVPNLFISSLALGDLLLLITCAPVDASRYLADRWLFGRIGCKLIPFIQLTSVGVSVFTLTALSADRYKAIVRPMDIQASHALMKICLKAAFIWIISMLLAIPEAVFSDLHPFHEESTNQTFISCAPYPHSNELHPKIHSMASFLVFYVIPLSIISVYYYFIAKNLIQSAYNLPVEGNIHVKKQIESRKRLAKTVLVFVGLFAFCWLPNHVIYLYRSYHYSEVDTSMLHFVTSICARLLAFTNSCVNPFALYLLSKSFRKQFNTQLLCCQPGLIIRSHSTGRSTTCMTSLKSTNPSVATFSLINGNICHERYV

With `CC[C@H](C)[C@@H](CCC(=O)N[C@H](C(N)=O)C(C)(C)C)NC(=O)[C@H](Cc1c[nH]cn1)NC(=O)CN(C)C(=O)[C@@H](NC(=O)[C@H](C)NC(=O)[C@H](Cc1c[nH]c2ccccc12)NC(=O)[C@H](CCC(N)=O)NC(=O)CCCCNC(=O)CC[C@H](NC(=O)[C@H](CCCCn1nnc2c1-c1ccccc1CN(C(=O)CCNC(=O)CCOCCOCCOCCOCCNC(=O)CCN1C(=O)CC(SC[C@H](NC(=O)[C@H](Cc3ccc(O)cc3)NC(=O)[C@H](CCC(=O)O)NC(=O)[C@H](CC(=O)O)NC(=O)[C@@H](NC(=O)[C@@H](NC(=O)[C@H](CCC(=O)O)NC(=O)[C@@H]3CCCN3C(=O)[C@H](CC(C)C)NC(=O)[C@@H]3CCCN3C(=O)[C@H](CCCCN)NC(=O)[C@@H](N)CO)C(C)C)[C@@H](C)O)C(=O)O)C1=O)c1ccccc1-2)NC(=O)CCCCNC(=S)Nc1ccc(C[C@H]2CN(CC(=O)O)CCN(CC(=O)O)CCN2CC(=O)O)cc1)C(=O)NCCCCC(=O)N[C@@H](CCC(N)=O)C(=O)N[C@@H](Cc1c[nH]c2ccccc12)C(=O)N[C@@H](C)C(=O)N[C@H](C(=O)N(C)CC(=O)N[C@@H](Cc1c[nH]cn1)C(=O)N[C@H](CCC(=O)N[C@H](C(N)=O)C(C)(C)C)[C@@H](C)CC)C(C)C)C(C)C` (some centres unmarked) [E5B9-NOTA-(BBN2)2 TM], the half-inhibitory concentration (IC50) (competition against 125I-Tyr4-bombesin (0.05 nM) in PC3 cells, 2 h at 4 °C, triplicates, gamma counter, mean ± SEM, read-out: IC50 (competition binding to GRPR)) came out at 0.7 ± 0.1 nM.
`CSCC[C@H](NC(=O)[C@H](CC(C)C)NC(=O)[C@H](Cc1c[nH]cn1)NC(=O)CNC(=O)[C@@H](NC(=O)[C@H](C)NC(=O)[C@H](Cc1c[nH]c2ccccc12)NC(=O)[C@H](Cc1c[nH]cn1)NC(=O)[C@H](CC(N)=O)NC(=O)CNC(=O)[C@H](CCCN=C(N)N)NC(=O)[C@@H]1CCCN1C(=O)[C@H](Cc1ccc(O)cc1)NC(=O)[C@H](CCSC)NC(=O)[C@H](CCCCN)NC(=O)[C@@H](NC(=O)[C@H](CC(C)C)NC(=O)[C@@H](NC(=O)[C@@H](NC(=O)CNC(=O)CNC(=O)CNC(=O)[C@H](C)NC(=O)[C@@H]1CCCN1C(=O)[C@H](CC(C)C)NC(=O)[C@@H]1CCCN1C(=O)[C@@H](N)C(C)C)[C@@H](C)O)C(C)C)[C@@H](C)O)C(C)C)C(N)=O` [GRP, gastrin-releasing peptide, reference compound]: the IC50 was 0.15 ± 0.05 nM.
